According to publication PMC8041433 (Environmental Health Perspectives, 2021):
Several values for one entry are separate records, joined by “and”; a condition that tells them apart may be missing. Equal values may be shown once. Where a name gives a salt, the structure may show the parent alone. Read-outs that look alike come from different tables or passages of the source.

Legend:
[1] = target: AChE in SH-SY5Y cells (Homo sapiens, UniProt P22303); assay: cell-based
[2] = target: T1, recombinant human AChE (Homo sapiens, UniProt P22303); assay: biochemical
T1 sequence (P22303 32-614): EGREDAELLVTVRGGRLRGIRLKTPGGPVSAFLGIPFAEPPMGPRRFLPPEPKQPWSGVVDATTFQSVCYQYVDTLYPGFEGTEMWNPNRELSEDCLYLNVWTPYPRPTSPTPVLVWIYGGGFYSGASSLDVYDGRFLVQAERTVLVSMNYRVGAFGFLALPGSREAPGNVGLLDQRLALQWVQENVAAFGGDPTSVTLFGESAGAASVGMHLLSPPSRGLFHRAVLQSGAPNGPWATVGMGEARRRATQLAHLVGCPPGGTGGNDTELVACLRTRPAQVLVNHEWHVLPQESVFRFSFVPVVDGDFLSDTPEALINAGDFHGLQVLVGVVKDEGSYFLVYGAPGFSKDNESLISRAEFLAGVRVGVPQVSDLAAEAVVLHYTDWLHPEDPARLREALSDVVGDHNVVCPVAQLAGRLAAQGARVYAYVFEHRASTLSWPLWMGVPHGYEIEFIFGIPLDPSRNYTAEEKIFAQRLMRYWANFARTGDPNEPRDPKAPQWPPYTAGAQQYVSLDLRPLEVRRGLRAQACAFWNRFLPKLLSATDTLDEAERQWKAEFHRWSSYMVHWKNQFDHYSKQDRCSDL

[3] = target: T1, recombinant human AChE

Chain of AChE in SH-SY5Y cells (P22303 32-614): as above

Row | Structure (SMILES) | IC50 ([1]; IC50 (uM)) | CC-v2 (curve classes) [2] | Efficacy [2] | IC50 ([2]; IC50 (uM)) | CC-v2 (curve classes) [3] | Efficacy [3] | CC-v2 (curve classes) [1] | AChE inhibition (result in words) [2] | IC50 ([1]; read-out: IC50) [µM] | IC50 ([2]; read-out: IC50) [µM]
1 | Cc1ccc(CCn2c3c(c4cc(Cl)ccc42)CN(C)CC3)cn1 [Dorastine] | 34.7 µM and 30.9 µM | -2.4 | -32.475 | 38.9 µM | 4 | -6.925 | – | – | – | –
2 | CCCCOc1ccc(C(=O)CCN2CCCCC2)cc1 [Dyclonine hydrochloride] | 12.3 µM and 13.8 µM | -2.2 | -57.155 | 27.5 µM | 4 | 0 | -2.1 | – | – | –
3 | CCOP(=S)(Oc1ccc([N+](=O)[O-])cc1)c1ccccc1 (centres unmarked) [EPN] | – | 4 | 0 | – | -1.1 | -95.341 | 4 | did not show effects | – | –
4 | O=S1OC[C@@H]2[C@H](CO1)[C@]1(Cl)C(Cl)=C(Cl)[C@@]2(Cl)C1(Cl)Cl (some centres unmarked) [Endosulfan I] | – | -1.1 | -101.477 | – | -3 | -117.846 | -1.1 | – | – | –
5 | CN1C[C@H](C(=O)N[C@]2(C)O[C@@]3(O)[C@@H]4CCCN4C(=O)[C@H](Cc4ccccc4)N3C2=O)C=C2c3cccc4[nH]cc(c34)C[C@H]21 [Ergotamine D-tartrate] | 8.32 µM and 1.01 µM and 3.72 µM and 1.13 µM and 0.898 µM | – | – | 29.5 µM and 5.67 µM | 4 | 0 | -1.1 | – | – | –
6 | CC[n+]1c(-c2ccccc2)c2cc(N)ccc2c2ccc(N)cc21 [Ethidium bromide] | 19.5 µM and 31.6 µM and 17.4 µM | -2.2 | – | 30.9 µM and 79.3 µM | 4 | – | -2.1 | – | – | –
7 | CCSCc1ccccc1OC(=O)NC [Ethiofencarb] | 10 µM and 17.8 µM | -1.1 | -87.381 | 20 µM | 4 | -27.523 | -1.1 and -2.1 | – | – | –
8 | Oc1ccc(C(O)CNCCCCCCNCC(O)c2ccc(O)c(O)c2)cc1O (centres unmarked) [Hexoprenaline sulfate] | 38.9 µM and 30.9 µM | 4 | 0 | – | 4 | 0 | – | – | – | –
9 | O=C(C[S+]([O-])Cc1ccco1)NC/C=C\COc1cc(CN2CCCCC2)ccn1 (centres unmarked) [Lafutidine] | 38.9 µM and 27.5 µM and 17.4 µM | -2.2 | -35.592 | 34.7 µM | 4 | 0 | -2.1 | – | – | –
10 | C=CCN1CC[C@]23CCCC[C@H]2[C@H]1Cc1ccc(O)cc13 [Levallorphan] | – | 4 | -27.829 | – | 4 | 0 | -2.1 | – | – | –
11 | CCN(CC)C(=O)[C@@H]1C=C2c3cccc4[nH]cc(c34)C[C@H]2N(C)C1 [Lysergide] | 73.8 µM and 93 µM | -2.2 | -56.682 | 104 µM | 4 | -29.643 | -2.1 | – | – | –
12 | COc1nn(CSP(=S)(OC)OC)c(=O)s1 [Methidathion] | 63.3 µM and 79.6 µM and 71 µM and 56.4 µM and 39.9 µM and 35.6 µM and 44.8 µM and 50.2 µM | 4 | 0 | – | 4 | – | – | – | – | –
13 | COP(=O)(OC)Oc1ccc([N+](=O)[O-])cc1 [Methylparaoxon] | – | -1.1 | -92.551 | – | -2.1 | -96.544 | -1.1 | – | – | –
14 | CN(C)c1ccc(C(=C2C=CC(=[N+](C)C)C=C2)c2ccc(N(C)C)cc2)cc1.[Cl-] [Methylrosaniline chloride] | – | -2.1 | -113.882 | – | 4 | 0 | – | – | 38.9 | 30.9
